pEC50, pIC50: −log10 of the molar value. In brackets after ≈: the same amount, converted by molar mass. Several values for one entry are separate records, joined by “and”; a condition that tells them apart may be missing. Identical values can stand only once.
Experiments:
[1] = Mouse microsomal intrinsic clearance; type: in vitro ADME; conditions: mouse liver microsomes, scaling 52.5 mg microsomal protein/g liver
Method: Mouse microsomal intrinsic clearance.
This assay was conducted as previously described:
J.; Reid, I. H.; Hill, A. P.;
were prepared by adding a volume (5 µL) of the 10 mM solution to a volume (195 µL) of […]

[2] = system: intracellular T. cruzi X10/7 A1 amastigotes
T. cruzi proteasome = T. cruzi proteasome (Trypanosoma cruzi, UniProt V5BU39+V5C017); experiment: T. cruzi proteasome assay (chymotrypsin-like activity, Suc-LLVY-Rho-110-DPro)
Method: T. cruzi and human proteasome assays
(§1) The T. cruzi proteasome was partially purified as described in the above reference and Human
(§2) 20S proteasome was purchased from Boston Biochem (now R&D Systems, catalogue number
(§3) a Tecan Fluent to titrate over 11 points in Labcyte Echo-compatible Greiner Bio-One 384 well
(§4) polypropylene microplates. Subsequently, 100 nl of test compound titrations were transferred
(§5) to black Greiner Bio-One low volume 384 well microplates using a Labcyte Echo acoustic
(§6) 50 mM HEPES pH 7.5, 150 mM sodium chloride, 5% Glycerol, 1 mM dithiothreitol, 1 mM
(§7) CHAPS in deionised, filtered water (all chemicals purchased from Sigma Aldrich). Human 20S
(§8) These enzyme solutions were prepared immediately prior to assay initiation and stored at 4 °C
(§9) To monitor the Chymotrypsin-like activity of the T. cruzi and Human 20S proteasome proteins
(§10) a self-quenched, Rhodamine 110-labelled peptide with the sequence Suc-LLVY-Rho-110-
(§11) DPro was used (prepared by Cambridge Research Biochemicals. Suc is succinyl, while DPro
(§12) refers to ᴅ-proline). The peptide was initially prepared from solid as a 10 mM solution in 100%
(§13) DMSO and stored at -20 °C. Prior to use in the assay, an aliquot was thawed at room
(§14) to twofold Km. For use with the Human 20S proteasome, the Suc-LLVY-Rho-110-DPro
(§15) peptide was diluted in assay buffer to a concentration equivalent to twofold Km, which for this
(§16) enzyme was 2 μM. The peptide solutions were protected from light and stored at 4 °C before
(§17) A Multidrop Micro (Thermo Fisher), using a low volume dispense cassette, was used to add
(§18) the assay solutions to the test compounds in the low volume 384-well microplates. Prior to
(§19) addition of proteasome solution, 5 μl of assay buffer was added to one column (containing 100
(§20) nl, 100% DMSO) to act as no enzyme control to mimic full inhibition. Subsequently, 5 μl of
(§21) proteasome solution (either T. cruzi or Human 20S) was added to all wells on the test
(§22) microplate apart from the column containing 5 μl assay buffer. The microplate was then spun
(§23) using a suitable bench top centrifuge for 1 minute at 1000 rpm, before incubation at room
(§24) Following the initial incubation, 5 μl of substrate solution was then added to all wells on the
(§25) test microplate using a Multidrop Micro equipped with a discrete low volume dispense cassette.
(§26) The test microplates were then spun for 10 seconds at 1000 rpm before being rapidly moved to
(§27) a multi-mode microplate reader, capable of monitoring fluorescence intensity. The microplate
(§28) reader used for these studies was a Tecan M1000 Pro, equipped with quad monochromators.
(§29) 530 ± 5 nm. A series of fluorescence intensity measurements were taken every 30 seconds for
(§30) Subsequently, the fluorescence intensity measurements (relative fluorescence units, RFU) were
(§31) fit to a simple linear regression model (y = A + Bx, where y refers to the fluorescence intensity
(§32) and x refers to the time in seconds) to determine the initial rate of reaction. The initial rate for
(§33) every compound concentration tested was then fit a 4-parameter logistic model: y = (A + (B -
(§34) A)) / (1 + (x / C)D), where y refers to the assay response, x refers to the inhibitor concentration,
(§35) A and B are the range values (minimum and maximum, respectively), C is the IC50 value and
(§36) D is the slope. Potency values were then reported as pIC50, which is the negative log of the
(§37) IC50 (on a molar scale). Data analysis was automated and carried out using the ActivityBase

Human 20S proteasome = Human 20S proteasome (Homo sapiens, UniProt P28074+P49721); experiment: human proteasome assay (chymotrypsin-like activity, Suc-LLVY-Rho-110-DPro)
Method: T. cruzi and human proteasome assays
as §1, §2, §3, §4, §5, §6, §7, §8, §9, §10, §11, §12, §13, §14, §15, §16, §17, §18, §19, §20, §21, §22, §23, §24, §25, §26, §27, §28, §29, §30, §31, §32, §33, §34, §35, §36, §37

Brain tissue binding = type: in vitro ADME; conditions: read-out: brain tissue free fraction
FaSSIF solubility = conditions: fasted state simulated intestinal fluid
Method: undissolved material using a proprietary filter (Millipore Multiscreen HTS filter, 96-well
format). Samples were then drawn through the filter using vacuum. The filtrate from the above
was analysed for dissolved drug compound using a truncated UHPLC methodology. A Shimadzu Nexera X2 UHPLC system was used, with a reversed-phase column and a simple
formic acid gradient elution. The UHPLC parameters are shown below:
Mobile phase component A HPLC water plus 0.1% formic acid
Mobile phase component B HPLC acetonitrile plus 0.1% formic acid
Re-equilibration time: 0.6 min
Autosampler temperature: 25°C
Column: Hypersil Gold, C18 1.9 µm, 50 x 2.1 mm
A calibration solution was prepared in the following way: The same 10 mM solution used to
was then diluted with 50:50 acetonitrile:water to give a 50 µM solution. Aliquots (0.2, 2.0 and
5.0 µL) of this 50 µM solution were then injected onto the UHPLC system and the areas of the
resultant peaks integrated to produce a calibration line. Aliquots of the test sample filtrate (0.4
and 5.0 µL) were then injected onto the UHPLC system and the resultant peak areas for any
peaks corresponding to the test compound determined and quantified using the calibration line
(the injection volume that gave a peak area closest to the calibrated range was used for

[3] = Kinetic solubility by chemiluminescent nitrogen detection (CLND); type: physicochemical
Brain-blood ratio = type: in vivo; conditions: mouse
T. cruzi [4] = experiment: Chronic mouse efficacy model of Chagas disease; type: in vivo, Balb/c mice; conditions: 5 days at 50 mg/kg bid
Method: All regulated procedures on living animals were carried out under the authority of a project license issued by the Home Office under the Animals (Scientific Procedures) Act 1986, as amended in 2012 (and in compliance with EU Directive EU/2010/63). Infected animals had access to food and water ad libitum and were housed under a 12-hour light/dark photoperiod.
Animals used in these experiments were female NMRI and Balb/c mice (Harlan, UK). […]
In vivo Mouse Efficacy Studies.
The T. cruzi chronic efficacy study was run in Balb/c mice as previously described:
M.D. Lewis, A. Fortes Francisco, M.C. Taylor, J.M. Kelly, A new experimental model for assessing drug efficacy against Trypanosoma cruzi infection based on highly sensitive in vivo imaging, J. Biomol. Screen 20 (1) (2015) 36–43

T. cruzi [5] = experiment: T. cruzi in vitro washout assay; type: cell-based, Trypanosoma cruzi; conditions: 8 days of treatment, 50-fold EC50
Text: T. cruzi in vitro washout assay
This assay was run as previously reported:
Marco M.; Miles T.J.; Naylor C.; Osuna-Cabello M.; Paterson C.; Read K.D.; Pinto E.G.; Riley
J.; Scullion P.; Shishikura Y.; Simeons F.; Stojanovski L.; Svensen N.; Thomas J.; Wyatt P.G.;
disubstituted piperazines for the treatment of Chagas disease. […]

P-gp (MDR1) = experiment: in vitro; conditions: dog, MDCK-MDR1
Method: MDR1-MDCK Permeability assay
Bi-directional transport was assessed in the presence and absence of Pgp inhibitor GF120918
(Elacridar). MDCK-MDR1 cells (Netherlands Cancer Institute) were maintained in culture
(DMEM, Gibco Cat: 61965-026 supplemented with 1% penicillin/streptomycin, 10% FCS)
until required. For experimentation, cells were seeded onto individual transwell ’Thincerts’
(Greiner, Cat 662610) at a density of 35,000 cells/well. Cells were grown at 37 °C, 5% CO2 for
3 days. On day 4, media was replaced with fresh media and incubated for 1 hour. Prior to
experimentation, cells were incubated with Dulbeccos PBS (Gibco, 14287-080) with/without
Pgp inhibitor, 2 µM GF120918, to ensure inactivation of the Pgp transporter. Cells were then
dosed apically and basolaterally (1 µM test compound, 10 µM Lucifer Yellow (1% DMSO)
with/without 2 µM GF120918) for 1 hour. 100 mL of solution from donor and receiver wells
was removed to a 96 well deepwell plate alongside 100 mL of dosing solution. 150 µL of
acetonitrile containing internal standard (e.g., 100 ng/mL Sulfadimethoxine) was then added
to all samples prior to analysis by LC-MS/MS. Amprenavir (positive control) were run […]
a Lucifer Yellow standard curve for fluorescence determination of Lucifer Yellow
concentrations. Papp (apparent permeability) values were calculated for each compound for […]
efflux ratios (ER) determined using the following equations: […]

[6] = In vivo blood exposure / pharmacokinetics in mice; set-up: species or system mouse
Method: Blood samples (10 μL) where taken
and 24 hours post dose samples for I.V. leg only) and mixed with two volumes of deionized water (20 μL). After suitable sample preparation, the concentration of test compound in the whole blood from treated mice was determined by UPLC-MS/MS using a Quattro Premier XE (Waters, USA). Pharmacokinetic parameters were derived from the mean blood concentration time curve using PK solutions software v 2.0 (Summit Research Services, USA).

T. cruzi proteasome, sequence (V5BU39 entry or part of it): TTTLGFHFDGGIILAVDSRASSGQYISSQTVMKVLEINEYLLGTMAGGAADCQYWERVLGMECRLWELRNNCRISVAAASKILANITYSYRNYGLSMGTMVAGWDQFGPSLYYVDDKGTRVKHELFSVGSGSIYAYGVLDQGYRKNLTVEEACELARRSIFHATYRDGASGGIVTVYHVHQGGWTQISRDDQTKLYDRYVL
T. cruzi proteasome, sequence (V5C017 entry or part of it): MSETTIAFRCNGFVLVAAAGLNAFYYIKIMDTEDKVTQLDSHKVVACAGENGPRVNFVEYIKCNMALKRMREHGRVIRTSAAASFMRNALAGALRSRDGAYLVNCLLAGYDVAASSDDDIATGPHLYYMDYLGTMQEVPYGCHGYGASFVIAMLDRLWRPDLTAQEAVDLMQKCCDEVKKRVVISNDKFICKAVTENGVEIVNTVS

O=C(Nc1ccc(F)c(-c2cn3nc(N4CCOCC4)cnc3n2)c1)N1CCCC1 [Compound 4]
Mouse CLi [1]: <0.5 mL/min/g
pEC50 [2]: 7.00 and 6.90 and 7.20
Emax [2]: 95% and 90% and 93% and 98% and 99% and 96% and 92% and 100%
pIC50 (T. cruzi proteasome; Tc Prot pIC50, individual replicate): > 8.80 and 8.40 and 8.10 and 8.80 and 8.60 and 7.90 and 8.30 and 8.00
Tc Prot Hill Slope (T. cruzi proteasome; individual replicate): 1.0 and 0.8 and 0.7 and 0.9 and 0.75 and 1.1 and 0.95
Tc Prot Max Response (%) (T. cruzi proteasome; individual replicate): 89% and 88% and 85% and 90% and 87%
Emax (T. cruzi proteasome; read-out: Tc Prot Max Response (%), individual replicate): 91%
pIC50 (Human 20S proteasome; Hs Prot pIC50, individual replicate): 4.60 and 4.10
Hs Prot Hill Slope (Human 20S proteasome; individual replicate): 1.7 and 0.9 and 1.3
Hs Prot Max Response (%) (Human 20S proteasome; individual replicate): 35% and 21% and 42% and 24% and 10% and 50% and 28% and 48% and 38% and 29% and 47% and 41% and 54% and 44% and 52% and 49% and 40%
Hs Prot pIC50 (Human 20S proteasome; individual replicate): < 4
Hs Prot pIC50 (Human 20S proteasome; mean of at least three independent replicates): <4
fraction unbound (Brain tissue binding): 0.043
FaSSIF solubility (FaSSIF solubility): 32 µM
aqueous solubility [3]: 59 µM (≈ 24.3 µg/mL)
Kp (Brain-blood ratio): 0.07
effect on parasite levels (T. cruzi [4]): no visible effect on parasite levels
parasites relapsing on day (T. cruzi [5]): 34 days
efflux ratio at 1 h, 1 µM (P-gp (MDR1)): 22
predicted brain exposure relative to T. cruzi EC99 ([6]; from blood exposure in chronic efficacy model, brain-blood ratio and brain free fraction): well below T. cruzi EC99
time blood exposure above T. cruzi EC99 ([6]; mouse VL efficacy study, 50 mg/kg, also when corrected for plasma protein binding): > 8 h
